In PubChem BioAssay (NCI):
Several values for one entry are separate records, joined by “and”; a condition that tells them apart may be missing. Equal entries are not always repeated.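 Test compounds were applied to cells in 96-well plates for 48 hours at 5 doses. GI50 marks 50% less growth. TGI marks complete inhibition of growth.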

Legend:
Experiment in all cases: growth of human tumour cells (NCI), 48 h
[1] = test system: COLO 205 colon
[2] = test system: KM20L2 colon
[3] = test system: DLD-1 colon
[4] = test system: RPMI-8226 leukemia
[5] = test system: UO-31 renal
[6] = test system: OVCAR-8 ovarian
[7] = test system: SK-OV-3 ovarian
[8] = test system: UACC-257 melanoma
[9] = test system: SK-MEL-2 melanoma
[10] = test system: HS 578T breast

| SMILES | TGI [1] [µM] | TGI [2] [µM] | TGI [3] [µM] | TGI [4] | TGI [5] | TGI [6] | TGI [7] | TGI [8] | TGI [9] | TGI [10] | GI50 [1] | GI50 [3] [µM] | GI50 [4] | GI50 [5] [µM] | GI50 [6] | GI50 [7] [µM] | GI50 [8] | GI50 [9] | GI50 [10] [µM] |
| --- | --- | --- | --- | --- | --- | --- | --- | --- | --- | --- | --- | --- | --- | --- | --- | --- | --- | --- | --- |
| COc1ccc2nc3cc(Cl)ccc3c(Nc3ccccc3-c3ccccc3Nc3c4ccc(Cl)cc4nc4ccc(OC)cc34)c2c1 | > 88 | > 81.4 | > 47.3 | > 47.7 µM | > 100 µM | > 100 µM | > 100 µM | > 46.4 µM | > 73.7 µM | > 100 µM |  |  |  |  |  |  |  |  |  |
| NC(CSC(c1ccccc1)(c1ccccc1)c1ccccc1)C(=O)O (stereo not drawn) |  | 5.47 | 125 | 37.3 µM and 22.4 µM and 20.7 µM | 107 µM and > 100 µM | 51.5 µM and 35.7 µM and > 100 µM | 14.8 µM and > 100 µM | 53.8 µM and 94.6 µM and > 100 µM | 5.34 µM and 9.72 µM and 5.63 µM | 21 µM and 32.4 µM | 3.27 µM and 1.34 µM | 0.831 | 3.53 µM and 0.501 µM | 9.89 | 1.93 µM and 1.05 µM | 0.425 | 1.18 µM and 0.789 µM | 1.51 µM and 0.886 µM | 0.723 |
| O=C(O)CCC(O)=C1S(=O)(=O)OCCOS1(=O)=O | > 100 | > 100 | > 100 | > 100 µM | > 100 µM | > 100 µM | > 100 µM | > 100 µM | > 100 µM | > 100 µM |  |  |  |  |  |  |  |  |  |
